# Measurements from patent US10463709B2, “Short synthetic peptide for treating diseases and/or conditions related to angiogenesis” (MacKay Memorial Hospital, priority 2015, dated 2019).
# Ends that are not written are not given here.
# Tests used:
# diabetic rats = test: Vascular abnormalities in the retina of diabetic rats; assay type: in vivo, Sprague-Dawley rats; details: intravitreal injection
# Method: Diabetes was induced in male Sprague-Dawley rats after fasting overnight by a single intraperitoneal injection of STZ (65 mg/kg body weight). STZ was freshly prepared in 0.1 M citrate buffer (pH 4.5). Rats with blood glucose levels >350 mg/dl for 5 days after receiving STZ were considered to be in diabetic status and were termed diabetic rats hereinafter. Blood glucose levels were checked every 2 days a blood glucose monitor. Animals that served as non-diabetic controls received an equivalent amount of citrate buffer alone. For peptide treatment, diabetic rats were anesthetized by an intraperitoneal injection of a Xylazine (10 mg/kg), and then intravitreally injected with 3 μl of the present synthetic peptide (10 mM) into one eye and an equal volume of PBS was injected into the contralateral eye (n=3-6 per group). After peptide treatment for 24 h, measurement of retinal vascular leakage by BSA-FITC (100 mg/kg body weight) was conducted in according to procedures described above.
# [1] = test system: rat model of laser-induced wet AMD; test: Laser-induced wet AMD, rat model; assay type: in vivo; details: fluorescein angiography day 14; vs PBS vehicle
# From the text: Further, the effect of 7-mer or 7-mer DD on rat model of laser-induced wet AMD was also investigated. Fluorescein angiography images were obtained on day 14 after laser burn, and the images were subsequently scored. Results are depicted in FIG. 14.
# HUVECs [2] = test: VEGF-induced HUVEC proliferation assay; assay type: cell-based; details: VEGF (10 ng/mL) + 25 μM peptide; vs untreated HUVECs
# HUVECs [3] = test: Endothelial cell capillary-like tube formation assay; assay type: cell-based
# [4] = test system: laser-induced wet AMD mouse model; test: Laser induced choroidal neovascularization (CNV), mouse; assay type: in vivo, C57BL/6 mice; details: 10 mg/kg intraperitoneal twice a day for 10 days; vs vehicle
# Method: The 8-week-old female C57BL/6 mice were anaesthetized by injecting intraperitoneally a mixture of zoletil (6 mg/kg) and xylazine (3 mg/kg). The retina was viewed through a slit lamp microscope, and the optic nerve head was placed in the center of the microscope field. Both eyes received 3 or 4 laser burns around the optic nerve head using the diode laser (lesion diameter 50 μm; duration 100 ms; energy 250 mW). The formation of a blister indicates rupture of the Bruch's membrane after laser application. DMSO Vehicle or 7-mer (10 mg/kg; n≥10 per peptide) were administered by intraperitoneal injections twice a day for 10 days. Fluorescein fundus images were taken about 5 minutes after intraperitoneal injection of 0.1 mL of 100 mg/ml Fluorescein (10% w/v). During this period, the size of fluorescein leakage spots was relatively stable. The leakage of each CNV lesion was graded by a retina specialist according to the method described by Sheets et al. (Molecular Vision 2010; 16:320-329). […]
# Wet type age-related macular degeneration (AMD) is characterized by extensive growth of new vessels in retina. […] Newly formed microvessels with clear fluorescein leakage in retina were assessed by fundus fluorescein angiography 10 days post laser treatment, and results are provided in the photographs of FIG. 13.
substance,measurement,setting,value
"NH2-Asp-Leu-Tyr-Arg-Val-Arg-Ser-COOH (DLYRVRS; not fully specified (N-terminus, C-terminus); printed as NH2-Asp-Leu-Tyr-Arg-Val-Arg-Ser-COOH) [7-mer]",levels of leaked FITC-BSA in entire retina vs vehicle,diabetic rats,0.43±0.07 fold
same,number of vascular lesion in retina,diabetic rats; 24 h,9.2±2.15
same,lesions caused by the laser burn,[1],significantly ameliorated
same,Cell number (Fold),HUVECs [2],0.95 ± 0.050 Fold
same,effect on VEGF-induced tube formation,"HUVECs [3]; HUVECs, VEGF, 6 hrs",inhibited
same,Tube length (Fold),"HUVECs [3]; VEGF (10 ng/mL) + 25 μM peptide, vs untreated HUVECs",1.24 ± 0.23 Fold
same,"CNV lesion grades, severity distribution",[4],lower severity distribution of CNV
